Like-named read-outs stand apart in the source and are kept apart here.
Legend:
[1] = system: PI3Kα; conditions: cited from earlier work
[2] = system: A549 cell line (lung cancer); test: MTT cytotoxicity assay, A549; type: cell-based; conditions: Homo sapiens, 72 h, average of two separate determinations, NA: No Activity
Description: (§1) The target compounds 12a–g, 13a–g and 14a–g were evaluated for their in vitro cytotoxicity against three cancer cell lines (A549, PC-3 and MCF-7) by the standard MTT assay, with compound II and GDC-0941 as positive controls. […] The results expressed as inhibition rates or IC50 values are summarized in Table 1 and Table 2, where the values are the average of at least two independent experiments.
(§2) The in vitro cytotoxic activity of all the compounds 12a–g, 13a–g and 14a–g was evaluated with the A549, PC-3 and MCF-7 cell lines by the standard MTT assay, with compounds II and GDC-0941 as positive controls. The cancer cell lines were cultured in minimum essential medium (MEM) supplement with 10% fetal bovine serum (FBS). Approximately 4 × 10^3 cells, suspended in MEM medium, were plated onto each well of a 96-well plate and incubated in 5% CO2 at 37 °C for 24 h. The test compounds at indicated final concentrations were added to the culture medium and the cell cultures were continued for 72 h. Fresh MTT was added to each well at a terminal concentration of 5 μg/mL and incubated with cells at 37 °C for 4 h. The formazan crystals were dissolved in 100 μL of DMSO in each well, and the absorbance at 492 nm (for the MTT formazan) and 630 nm (for the reference wavelength) was measured with an ELISA reader. All of the compounds were tested three times in each of the cell lines. The results expressed as inhibition rates or IC50 (half-maximal inhibitory concentration) were the averages of two determinations and calculated by using the Bacus Laboratories Incorporated Slide Scanner (Bliss) software (the Bacus Laboratories Inc. Slide Scanner (BLISS) system, Lombard, IL, USA).

[3] = system: PC-3 cell line (prostate cancer); test: MTT cytotoxicity assay, PC-3; type: cell-based; conditions: Homo sapiens, 72 h, average of two separate determinations, NA: No Activity
Description: as §1, §2

[4] = system: MCF-7 cell line (breast cancer); test: MTT cytotoxicity assay, MCF-7; type: cell-based; conditions: Homo sapiens, MCF7, 72 h, average of two separate determinations, NA: No Activity
Description: as §1, §2

[5] = system: mTOR; parameters: method as in PMID 17339109; conditions: read-out: IC50 against mTOR; cited from earlier work
[6] = target: PI3Kα kinase (Homo sapiens, UniProt P42336); test: Kinase-Glo Luminescent Kinase Assay, PI3Kα; type: biochemical
Chain of PI3Kα kinase (P42336 whole entry): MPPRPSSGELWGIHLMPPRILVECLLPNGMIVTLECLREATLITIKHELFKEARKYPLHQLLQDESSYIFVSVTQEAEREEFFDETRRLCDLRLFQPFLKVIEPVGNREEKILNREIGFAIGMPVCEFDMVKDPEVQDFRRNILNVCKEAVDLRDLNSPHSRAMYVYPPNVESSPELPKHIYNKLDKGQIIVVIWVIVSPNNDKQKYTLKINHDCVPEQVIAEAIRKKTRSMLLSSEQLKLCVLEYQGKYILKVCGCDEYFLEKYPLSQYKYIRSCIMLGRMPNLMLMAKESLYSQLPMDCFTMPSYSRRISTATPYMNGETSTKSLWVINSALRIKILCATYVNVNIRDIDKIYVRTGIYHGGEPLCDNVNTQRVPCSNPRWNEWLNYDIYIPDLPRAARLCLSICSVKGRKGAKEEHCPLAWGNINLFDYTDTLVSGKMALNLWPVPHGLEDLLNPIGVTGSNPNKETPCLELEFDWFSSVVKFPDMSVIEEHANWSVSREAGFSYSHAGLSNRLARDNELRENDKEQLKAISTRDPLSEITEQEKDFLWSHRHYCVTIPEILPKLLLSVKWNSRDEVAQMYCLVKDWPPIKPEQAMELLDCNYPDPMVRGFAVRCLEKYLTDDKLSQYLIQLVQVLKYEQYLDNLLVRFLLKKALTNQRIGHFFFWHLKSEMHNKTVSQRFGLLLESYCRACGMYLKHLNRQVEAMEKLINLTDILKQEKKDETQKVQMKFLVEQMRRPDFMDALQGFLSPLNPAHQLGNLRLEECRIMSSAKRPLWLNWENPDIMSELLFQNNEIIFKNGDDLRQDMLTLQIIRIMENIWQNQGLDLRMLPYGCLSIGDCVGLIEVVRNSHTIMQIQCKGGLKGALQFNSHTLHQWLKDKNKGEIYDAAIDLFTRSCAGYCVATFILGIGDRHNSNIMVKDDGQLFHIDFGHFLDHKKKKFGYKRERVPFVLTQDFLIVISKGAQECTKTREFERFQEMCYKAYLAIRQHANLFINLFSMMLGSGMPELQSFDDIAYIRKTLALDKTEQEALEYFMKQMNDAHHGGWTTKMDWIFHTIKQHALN
Chain of PI3Kα kinase (P27986 whole entry partner): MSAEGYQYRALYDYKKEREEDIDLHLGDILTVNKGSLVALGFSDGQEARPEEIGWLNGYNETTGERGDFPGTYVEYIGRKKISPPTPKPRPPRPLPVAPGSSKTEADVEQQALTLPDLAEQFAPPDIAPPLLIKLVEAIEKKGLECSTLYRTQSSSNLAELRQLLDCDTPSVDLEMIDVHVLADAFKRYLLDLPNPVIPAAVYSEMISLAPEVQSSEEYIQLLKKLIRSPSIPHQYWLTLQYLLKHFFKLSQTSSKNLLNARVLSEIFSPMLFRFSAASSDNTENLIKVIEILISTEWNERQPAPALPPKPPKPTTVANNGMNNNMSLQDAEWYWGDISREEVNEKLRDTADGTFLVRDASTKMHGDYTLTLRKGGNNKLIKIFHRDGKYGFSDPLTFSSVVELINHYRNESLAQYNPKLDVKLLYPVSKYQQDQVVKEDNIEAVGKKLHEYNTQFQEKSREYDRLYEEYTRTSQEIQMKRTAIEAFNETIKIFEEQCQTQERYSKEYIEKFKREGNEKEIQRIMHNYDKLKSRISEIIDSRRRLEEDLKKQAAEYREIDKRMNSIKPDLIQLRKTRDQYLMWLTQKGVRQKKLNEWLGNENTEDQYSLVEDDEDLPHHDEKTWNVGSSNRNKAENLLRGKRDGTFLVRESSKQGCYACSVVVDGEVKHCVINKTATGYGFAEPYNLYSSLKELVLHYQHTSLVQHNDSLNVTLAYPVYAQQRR

| SMILES | melting point [°C] | IC50 [2] [µM] | IC50 [3] [µM] | IC50 [4] [µM] | also measured |
| --- | --- | --- | --- | --- | --- |
| O=C(Nc1ccc(-c2cn3ccnc3c(N3CCOCC3)n2)cc1)c1cc(-c2ccc(Cl)cc2)ncn1 [14e, 6-(4-Chlorophenyl)-N-(4-(8-morpholinoimidazo[1,2-a]pyrazin-6-yl)phenyl)pyrimidine-4-carboxamide] | 235 to 237 | 17.4 ± 1.01 |  |  |  |
| Cc1cccc(-c2ccnc(C(=O)Nc3ccc(-c4cn5ccnc5c(N5CCOCC5)n4)cc3)c2)c1 [13f, N-(4-(8-Morpholinoimidazo[1,2-a]pyrazin-6-yl)phenyl)-4-(m-tolyl)picolinamide] | 233 to 234 | 10.5 ± 0.82 | 65.61 ± 0.52 | 74.2 ± 1.86 |  |
| O=C(Nc1ccc(-c2cn3ccnc3c(N3CCOCC3)n2)cc1)c1ccc(-c2ccccc2)cn1 [12a] | 268 to 270 | 58.7 ± 1.99 | 50.3 ± 2.04 |  |  |
| O=C(Nc1ccc(-c2cn3ccnc3c(N3CCOCC3)n2)cc1)c1cc(-c2ccc(F)cc2F)ccn1 [13c, 4-(2,4-Difluorophenyl)-N-(4-(8-morpholinoimidazo[1,2-a]pyrazin-6-yl)phenyl)picolinamide] | 266 to 267 |  |  |  |  |
| Cc1cccc(-c2ccc(C(=O)Nc3ccc(-c4cn5ccnc5c(N5CCOCC5)n4)cc3)nc2)c1 [12f, N-(4-(8-Morpholinoimidazo[1,2-a]pyrazin-6-yl)phenyl)-5-(m-tolyl)picolinamide] | 241 to 243 | 19.1 ± 1.1 | 26.8 ± 1.47 |  |  |
| O=C(Nc1ccc(-c2cn3ccnc3c(N3CCOCC3)n2)cc1)c1ccc(-c2cccc(F)c2)cn1 [12b, 5-(3-Fluorophenyl)-N-(4-(8-morpholinoimidazo[1,2-a]pyrazin-6-yl)phenyl)picolinamide] | 261 to 264 |  |  |  |  |
| CS(=O)(=O)N1CCN(Cc2cc3nc(-c4cccc5[nH]ncc45)nc(N4CCOCC4)c3s2)CC1 [GDC-0941, 2-(1H-Indazol-4-yl)-6-(4-methanesulfonyl-piperazin-1-ylmethyl)-4-morpholin-4-yl-thieno[3,2-d]pyrimidine, reference compound] |  | 6.99 ± 0.21 | 0.2 ± 0.08 | 0.07 ± 0.03 |  |
| Cc1ccc(-c2cc(C(=O)Nc3ccc(-c4cn5ccnc5c(N5CCOCC5)n4)cc3)ncn2)cc1 [14b, N-(4-(8-Morpholinoimidazo[1,2-a]pyrazin-6-yl)phenyl)-6-(p-tolyl)pyrimidine-4-carboxamide] | 222 to 225 | 8.88 ± 0.97 | 25 ± 1.19 | 6.69 ± 2.04 | inhibition at 10 µM ([6]; at 10 μM, Kinase-Glo, average of two separate determinations, read-out: PI3Kα 10 μM Inhibitory %): 58 ± 4.4% |
| O=C(Nc1ccc(-c2cn3ccnc3c(N3CCOCC3)n2)cc1)c1cc(-c2ccccc2)ccn1 [13a, N-(4-(8-Morpholinoimidazo[1,2-a]pyrazin-6-yl)phenyl)-4-phenylpicolinamide] | 261 to 262 |  |  |  |  |
| COc1ccc(-c2ccc(C(=O)Nc3ccc(-c4cn5ccnc5c(N5CCOCC5)n4)cc3)nc2)cc1 [12e, 5-(4-Methoxyphenyl)-N-(4-(8-morpholinoimidazo[1,2-a]pyrazin-6-yl)phenyl)picolinamide] | 255 to 257 |  |  |  |  |
| O=C(Nc1ccc(-c2cn3ccnc3c(N3CCOCC3)n2)cc1)c1cc(-c2ccc(C(F)(F)F)cc2)ccn1 [13d, N-(4-(8-Morpholinoimidazo[1,2-a]pyrazin-6-yl)phenyl)-4-(4-(trifluoromethyl)phenyl)picolinamide] | 269 to 272 | 42 ± 1.49 | 55.6 ± 1.32 | 62.5 ± 1.99 |  |
| Cc1ccc(-c2ccc(C(=O)Nc3ccc(-c4cn5ccnc5c(N5CCOCC5)n4)cc3)nc2)cc1 [12g, N-(4-(8-Morpholinoimidazo[1,2-a]pyrazin-6-yl)phenyl)-5-(p-tolyl)picolinamide] | 258 to 260 | 68.1 ± 0.89 | 42.3 ± 0.86 |  |  |
| O=C(Nc1ccc(-c2cn3ccnc3c(N3CCOCC3)n2)cc1)c1cc(-c2ccc(C(F)(F)F)cc2)ncn1 [14g, N-(4-(8-Morpholinoimidazo[1,2-a]pyrazin-6-yl)phenyl)-6-(4-(trifluoromethyl)phenyl)pyrimidine-4-carboxamide] | 278 to 281 |  | 96.6 ± 2.58 |  |  |
| O=C(Nc1ccc(-c2cn3ccnc3c(N3CCOCC3)n2)cc1)c1cc(-c2ccc(Br)cc2)ncn1 [14d, 6-(4-Bromophenyl)-N-(4-(8-morpholinoimidazo[1,2-a]pyrazin-6-yl)phenyl)pyrimidine-4-carboxamide] | 221 to 223 | 14.4 ± 1.01 | 37.1 ± 0.97 |  |  |
| O=C(Nc1ccc(-c2cn3ccnc3c(N3CCOCC3)n2)cc1)c1ccc(-c2ccc(C(F)(F)F)cc2)cn1 [12d, N-(4-(8-Morpholinoimidazo[1,2-a]pyrazin-6-yl)phenyl)-5-(4-(trifluoromethyl)phenyl)picolinamide] | 233 to 235 | 15.3 ± 0.88 | 69.7 ± 1.13 |  |  |
| COc1ccc(-c2ccnc(C(=O)Nc3ccc(-c4cn5ccnc5c(N5CCOCC5)n4)cc3)c2)cc1 [13e, 4-(4-Methoxyphenyl)-N-(4-(8-morpholinoimidazo[1,2-a]pyrazin-6-yl)phenyl)picolinamide] | 257 to 260 | 23.9 ± 0.81 | 59.7 ± 2.22 | 74.9 ± 1.14 |  |
| O=C(Nc1ccc(-c2cn3ccnc3c(N3CCOCC3)n2)cc1)c1cc(-c2cccc(F)c2)ccn1 [13b, 4-(3-Fluorophenyl)-N-(4-(8-morpholinoimidazo[1,2-a]pyrazin-6-yl)phenyl)picolinamide] | 237 to 239 |  |  |  |  |
| COc1ccc(-c2cc(C(=O)Nc3ccc(-c4cn5ccnc5c(N5CCOCC5)n4)cc3)ncn2)cc1 [14c, 6-(4-Methoxyphenyl)-N-(4-(8-morpholinoimidazo[1,2-a]pyrazin-6-yl)phenyl)pyrimidine-4-carboxamide] | 269 to 271 | 6.39 ± 1.04 | 12.7 ± 0.95 | 10.2 ± 1.62 | IC50 ([6]; Kinase-Glo, average of two separate determinations): 1.25 ± 0.13 µM; fold more active than lead compound II against PI3Kα kinase ([6]; ratio of IC50 values, 7.39 μM vs 1.25 μM): 6 fold |
| Cc1ccc(-c2ccnc(C(=O)Nc3ccc(-c4cn5ccnc5c(N5CCOCC5)n4)cc3)c2)cc1 [13g, N-(4-(8-Morpholinoimidazo[1,2-a]pyrazin-6-yl)phenyl)-4-(p-tolyl)picolinamide] | 271 to 273 | 11.2 ± 1.08 |  | 7.89 ± 0.81 |  |
| O=C(Nc1ccc(-c2cn3ccnc3c(N3CCOCC3)n2)cc1)c1cc(-c2ccc(F)cc2)ncn1 [14f, 6-(4-Fluorophenyl)-N-(4-(8-morpholinoimidazo[1,2-a]pyrazin-6-yl)phenyl)pyrimidine-4-carboxamide] | 259 to 260 | 58.2 ± 4.67 |  | 47.1 |  |
| O=C(Nc1ccc(-c2cn3ccnc3c(N3CCOCC3)n2)cc1)c1cc(-c2ccccc2)ncn1 [14a, N-(4-(8-Morpholinoimidazo[1,2-a]pyrazin-6-yl)phenyl)-6-phenylpyrimidine-4-carboxamide] | 272 to 275 | 10.8 ± 1.62 |  |  |  |
| O=C(Nc1ccc(-c2cn3ccnc3c(N3CCOCC3)n2)cc1)c1ccc(-c2ccc(F)cc2F)cn1 [12c, 5-(2,4-Difluorophenyl)-N-(4-(8-morpholinoimidazo[1,2-a]pyrazin-6-yl)phenyl)picolinamide] | 255 to 257 |  |  |  |  |
